Measurements published in patent publication US11472798B2 (Mission Therapeutics Limited, priority 2014, dated 2022).

Biological target: T1, UCHL1 (Homo sapiens, UniProt P09936)
T1 construct: made in house; host or cells: HEK293T
T1 sequence (P09936 1-223): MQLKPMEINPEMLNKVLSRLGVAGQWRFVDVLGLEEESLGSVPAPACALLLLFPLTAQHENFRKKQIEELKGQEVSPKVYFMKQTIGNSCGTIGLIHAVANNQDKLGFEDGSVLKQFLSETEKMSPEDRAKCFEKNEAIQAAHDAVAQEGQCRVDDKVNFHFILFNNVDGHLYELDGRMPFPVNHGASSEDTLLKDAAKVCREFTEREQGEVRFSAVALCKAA
Assay: UCHL1 biochemical IC50 assay (fluorescence polarisation)
Details: 30 min enzyme/compound pre-incubation at room temp, read after 2 hr incubation, read-out: Activity range (UCHL1 biochemical IC50 assay)
Source text: Biological Activity of Compounds of the Invention Abbreviations: TAMRA carboxytetramethylrhodamine PCR polymerase chain reaction PBS phosphate buffered saline EDTA ethylenediaminetetraacetic acid Tris 2-amino-2-(hydroxymethyl)-1,3-propanediol NP-40 Nonidet P-40, octylphenoxypolyethoxyethanol BSA bovine serum albumin In Vitro UCHL1 Inhibition Assay Expression and Purification of UCHL1
The UCHL1 construct was PCR amplified and cloned into a pFLAG-CMV-6a vector (Sigma-Aldrich) with an N-terminal FLAG tag. HEK293T cells were transfected with FLAG-UCHL1 using TransIT-LT1 transfection reagent (Mirus) according to the manufacturer's instructions. Cells were harvested 40 hours after transfection. Cells were washed once with PBS and scraped in lysis buffer (50 mM Tris, pH 7.5, 150 mM NaCl, 3 mM EDTA, 0.5% NP40, 10% glycerol, 5 mM beta-mercaptoethanol, protease inhibitors (complete mini, Roche) and phosphatase inhibitors (PhosSTOP mini, Roche). Lysates were incubated for 30 min on ice and centrifuged at 1200 rpm for 10 min at 4° C. Soluble supernatant was added to FLAG affinity resin (EZview Rad ANTI-FLAG M2 affinity gel, Sigma-Aldrich) equilibrated in low salt buffer (20 mM Tris, pH 7.5, 150 mM NaCl, 0.5 mM EDTA, 5 mM beta-mercaptoethanol) and incubated at 4° C. for 3 hours rotating. The resin was spun at 2000 rpm for 2 min and the supernatant was removed. The resin was washed two times with low salt buffer and one time with high salt buffer (20 mM Tris, pH 7.5, 500 mM NaCl, 0.5 mM EDTA, 5 mM beta-mercaptoethanol, protease inhibitors (complete mini, Roche) and phosphatase inhibitors (PhosSTOP mini, Roche). To elute the bound UCHL1, elution buffer (10 mM Tris, pH 7.5, 150 mM NaCl, 0.5 mM FDTA, 10% glycerol, 0.5% NP40, 5 mM beta-mercaptoethanol, 0.15 mg/ml 3×FLAG peptide (Sigma-Aldrich)) was added to the resin and incubated at 4° C. for 2.5 hours rotating. The resin was centrifuged at 4000 rpm for 30 seconds, and the supernatant containing purified FLAG-UCHL1 was removed and stored at −80° C.
UCHL1 Biochemical IC50 Assay
Dilution plates were prepared at 21 times the final concentration (2100 μM for a final concentration of 100 µM) in 50% DMSO in a 96-well polypropylene V-bottom plate (Greiner #651201). A typical 8-point dilution series to be 100, 30, 10, 3, 1, 0.3, 0.1, 0.03 μM final. Reactions were performed in duplicate in black 384 well plates (small volume, Greiner 784076) in a final reaction volume of 21 μl. Either 1 μl of 50% DMSO or diluted compound was added to the plate. UCHL1 was diluted in reaction buffer (20 mM Tris, pH 7.5, 100 mM NaCl, 0.05% Tween 20, 0.5 mg/ml BSA, 5 mM—beta mercaptoethanol) to the equivalent of 0.05 μl/well and 10 μl of diluted UCHL1 was added to the compound. Enzyme and compound were incubated for 30 min at room temp. Reactions were initiated by the addition of 50 nM of TAMRA labelled peptide linked to ubiquitin via an iso-peptide bond as fluorescence polarisation substrate. Reactions were read immediately after addition of substrate and following a 2 hr incubation at room temperature. Readings were performed on a Pherastar Plus (BMG Labtech). λ Excitation 540 nm; k Emission 590 nm.

| IC50 | Compound |
| --- | --- |
| 1 to 10 µM | CC1CC(C(=O)Nc2ncc(-c3ccccc3)s2)CN1C#N (mixture of isomers) [Example 88, 1-cyano-5-methyl-N-(5-phenylthiazol-2-yl)pyrrolidine-3-carboxamide] |
| 10 to 30 µM | CC1CC(C(=O)Nc2cn(-c3ccccc3)cn2)CN1C#N (mixture of isomers) [Example 89, I-cyano-5-methyl-N-(1-phenyl-1H-imidazol-4-yl)pyrrolidine-3-carboxamide] |
| 10 to 30 µM | CC1CC(C(=O)Nc2cc(-c3ccccc3)[nH]n2)CN1C#N (mixture of isomers) [Example 90, 1-cyano-5-methyl-N-(5-phenyl-1H-pyrazol-3-yl)pyrrolidine-3-carboxamide] |
| 1 to 10 µM | C[C@@H]1CN(C#N)C[C@H]1C(=O)Nc1ncc(-c2ccccc2Cl)s1 (racemic) [Example 84, (±)-trans-N-(5-(2-chlorophenyl)thiazol-2-yl)-1-cyano-4-methylpyrrolidine-3-carboxamide] |
| < 1 µM | CC[C@@H]1CN(C#N)C[C@H]1C(=O)Nc1ncc(-c2ccccc2)s1 (racemic) [Example 86, (±)-1-cyano-4-ethyl-N-(5-phenylthiazol-2-yl)pyrrolidine-3-carboxamide] |
| < 1 µM | C[C@@H]1CN(C#N)C[C@H]1C(=O)Nc1ncc(N2CCCCC2)s1 (racemic) [Example 104, (±)-trans-1-cyano-4-methyl-N-(5-(piperidin-1-yl)thiazol-2-yl)pyrrolidine-3-carboxamide] |
| < 1 µM | Cc1noc(C)c1-c1ccc2nc(NC(=O)[C@@H]3CN(C#N)C[C@H]3C(F)(F)F)cn2c1 (racemic) [Example 210, (±)-trans-1-cyano-N-(6-(3,5-dimethylisoxazol-4-yl)imidazo[1,2-a]pyridin-2-yl)-4-(trifluoromethyl)pyrrolidine-3-carboxamide] |
| 1 to 10 µM | N#CN1C[C@@H](C(=O)Nc2ncc(-c3ccccc3)s2)[C@H](c2cccnc2)C1 (relative stereo) [Example 282, trans-1-cyano-N-(5-phenylthiazol-2-yl)-4-(pyridin-3-yl)pyrrolidine-3-carboxamide] |
| 1 to 10 µM | N#CN1C[C@@H](C(=O)Nc2ncc(-c3ccccc3)s2)[C@H](c2cncnc2)C1 (relative stereo) [Example 283, trans-1-cyano-N-(5-phenylthiazol-2-yl)-4-(pyrimidin-5-yl)pyrrolidine-3-carboxamide] |
| < 1 µM | N#CN1CC[C@H](C(=O)Nc2ncc(-c3ccccc3)s2)C1 [Example 1, (S)-1-cyano-N-(5-phenylthiazol-2-yl)pyrrolidine-3-carboxamide] |
| < 1 µM | N#CN1CCC(C(=O)Nc2ncc(-c3cccc(F)c3)s2)C1 (stereo not drawn) [Example 2, 1-cyano-N-(5-(3-fluorophenyl)thiazol-2-yl)pyrrolidine-3-carboxamide] |
| 1 to 10 µM | N#CN1CCC(C(=O)Nc2ncc(-c3ccccc3F)s2)C1 (stereo not drawn) [Example 3, 1-cyano-N-(5-(2-fluorophenyl)thiazol-2-yl)pyrrolidine-3-carboxamide] |
| < 1 µM | N#CN1CCC(C(=O)Nc2ncc(-c3ccc(Cl)cc3)s2)C1 (stereo not drawn) [Example 4, N-(5-(4-chlorophenyl)thiazol-2-yl)-1-cyano-pyrrodine-3-carboxamide] |
| 1 to 10 µM | N#CN1CCC(C(=O)Nc2ncc(-c3cccc(Cl)c3)s2)C1 (stereo not drawn) [Example 5, N-(5-(3-chlorophenyl)thiazol-2-yl)-1-cyano-pyrrolidine-3-carboxamide] |
| 1 to 10 µM | N#CN1CCC(C(=O)Nc2ncc(-c3ccccc3Cl)s2)C1 (stereo not drawn) [Example 6, N-(5-(2-chlorophenyl)thiazol-2-yl)-1-cyano-pyrrolidine-3-carboxamide] |
| 1 to 10 µM | Cc1cnc(NC(=O)C2CCN(C#N)C2)s1 (stereo not drawn) [Example 7, 1-cyano-N-(5-methylthiazol-2-yl)pyrrolidine-3-carboxamide] |
| 1 to 10 µM | CC(C)(C)c1cnc(NC(=O)C2CCN(C#N)C2)s1 (stereo not drawn) [Example 8, N-(5-(tert-butyl)thiazol-2-yl)-1-cyano-pyrrolidine-3-carboxamide] |
| 10 to 30 µM | N#CN1CCC(C(=O)Nc2nc(-c3ccccc3)cs2)C1 (stereo not drawn) [Example 9, 1-cyano-N-(4-phenylthiazol-2-yl)pyrrolidine-3-carboxamide] |

| IC50 | Compound |
| --- | --- |
| 10 to 30 µM | N#CN1CCC(C(=O)Nc2cnc(-c3ccccc3)s2)C1 (stereo not drawn) [Example 10, 1-cyano-N-(2-phenylthiazol-5-yl)pyrrolidine-3-carboxamide] |
| 1 to 10 µM | N#CN1CCC(C(=O)Nc2nnc(-c3ccccc3)s2)C1 (stereo not drawn) [Example 11, 1-cyano-N-(5-phenyl-1,3,4-thiadiazol-2-yl)pyrrolidine-3-carboxamide] |
| 1 to 10 µM | CCc1nnc(NC(=O)C2CCN(C#N)C2)s1 (stereo not drawn) [Example 12, 1-cyano-N-(5-ethyl-1,3,4-thiadiazol-2-yl)pyrrolidine-3-carboxamide] |
| 1 to 10 µM | N#CN1CCC(C(=O)Nc2cc(-c3ccccc3)no2)C1 (stereo not drawn) [Example 13] |
| 1 to 10 µM | COc1ccc(-c2cc(NC(=O)C3CCN(C#N)C3)on2)cc1 (stereo not drawn) [Example 14, 1-cyano-N-(3-(4-methoxyphenyl)isoxazol-5-yl)pyrrolidine-3-carboxamide] |
| 1 to 10 µM | N#CN1CCC(C(=O)Nc2cc(-c3ccccc3)on2)C1 (stereo not drawn) [Example 15, 1-cyano-N-(5-phenylisoxazol-3-yl)pyrrolidine carboxamide] |
| 10 to 30 µM | CC(C)(C)c1cc(NC(=O)C2CCN(C#N)C2)no1 (stereo not drawn) [Example 16, N-(5-(tert-butyl)isoxazol-1-3-yl)-1-cyano-pyrrolidine-3-carboxamide] |
| 1 to 10 µM | CC(C)(C)c1cc(NC(=O)C2CCN(C#N)C2)[nH]n1 (stereo not drawn) [Example 17, N-(3-(tert-butyl)-1H-pyrazol-5-yl)-1-cyano-pyrrolidine-3-carboxamide] |
| 1 to 10 µM | N#CN1CCC(C(=O)Nc2nc3ccccc3s2)C1 (stereo not drawn) [Example 18, N-(benzo[d]thiazol-2-yl)-1-cyano-pyrrolidine-3-carboxamide] |
| 1 to 10 µM | Cc1ccc2nc(NC(=O)C3CCN(C#N)C3)sc2c1 (stereo not drawn) [Example 19, 1-cyano-N-(6-methylbenzo[d]thiazol-2-yl)pyrrolidine-3-carboxamide] |
| 1 to 10 µM | N#CN1CCC(C(=O)Nc2nc3ccc(C(F)(F)F)cc3s2)C1 (stereo not drawn) [Example 20, 1-cyano-N-(6-(trifluoro-methyl)benzo[d]thiazol-2-yl)pyrrolidine-3-carboxamide] |
| 1 to 10 µM | COc1ccc2nc(NC(=O)C3CCN(C#N)C3)sc2c1 (stereo not drawn) [Example 21, 1-cyano-N-(6-methoxybenzo[d]thiazol-2-yl)pyrrolidine-3-carboxamide] |
| 1 to 10 µM | N#CN1CCC(C(=O)Nc2nc3ccc(Br)cc3s2)C1 (stereo not drawn) [Example 22, N-(6-bromobenzo[d]thiazol-2-yl)-1-cyano-pyrrolidine-3-carboxamide] |
| 10 to 30 µM | N#CN1CCC(C(=O)Nc2nc3ccccc3[nH]2)C1 (stereo not drawn) [Example 23, N-(1H-benzo[d]imidazol-2-yl)-1-cyano-pyrrolidine-3-carboxamide] |
| 10 to 30 µM | N#CN1CCC(C(=O)Nc2ccccn2)C1 (stereo not drawn) [Example 24, 1-cyano-N-(pyridin-2-yl)pyrrolidine-3-carboxamide] |
| 10 to 30 µM | N#CN1CCC(C(=O)Nc2ccc(Cl)cn2)C1 (stereo not drawn) [Example 25, N-(5-chloropyridin-2-yl)-1-cyano-pyrrolidine-3-carboxamide] |
| 10 to 30 µM | Cc1ccc(NC(=O)C2CCN(C#N)C2)nc1 (stereo not drawn) [Example 26, 1-cyano-N-(5-methylpyridin-2-yl)pyrrolidine-3-carboxamide] |
| 10 to 30 µM | COc1ccc(NC(=O)C2CCN(C#N)C2)nc1 (stereo not drawn) [Example 27, 1-cyano-N-(5-methoxy-pyridin-2-yl)pyrrolidine 3-carboxamide] |
